From patent publication US9060968B2, “Treatment of degenerative joint disease” (AMPIO PHARMACEUTICALS, INC., priority 2011, dated 2015)

Test system: oxidized collagen IV
Experiment: Binding to H2O2 treated collagen IV (decrease in <5 kDa filtrate by LCMS)
Design: species or system human
Conditions: for Binding to collagen, result in words: oxidized forms of collagen
Procedure: Collagen source: 1 mg/ml Collagen IV form human placenta in 0.25% acetic acid (Sigma™). The collagen was oxidixed with 500 μM H2O2 in 1×PBS for 1 hour at 37° C. The oxidized collagen IV (final=0.2 mg/ml) was then incubated with 2 μM DA-DKP or 2 μM NAT in PBS for 1 hour at 37° C. At the end of the incubation, the <5 kDa fraction was isolated by a VIVASPIN® 2 microcentrifugal filter having a molecular weight cutoff of 5,000. The <5 kDa fraction was analyzed for DA-DKP and/or NAT content using a liquid chromatograph-mass spectrometery (LCMS) method for DA-DKP analysis.

| SMILES | Average % decrease (2 μM, oxidized collagen IV 0.2 mg/ml, 1 hour at 37° C., alone) | Binding to collagen, result in words |
| --- | --- | --- |
| C[C@@H]1NC(=O)[C@H](CC(=O)O)NC1=O [DA-DKP, aspartyl-alanyl diketopiperazine] | 26.0% | bind to oxidized forms of collagen |
| CC(=O)N[C@@H](Cc1c[nH]c2ccccc12)C(=O)O [NAT, N-acetyl-tryptophan] |  | bind to oxidized forms of collagen |
